Experimental data as given in patent US20260000763A1, “Methods of Manufacturing Therapeutic Cells” (The Board of Trustees of the Leland Stanford Junior …, priority 2022, published 2026).

Tested on: HA-INO-CAR T cells
Experiment: Ciclopirox treatment of inosine-cultured HA-CAR T cells, memory subsets by flow cytometry
Assay type: cell-based, human
Conditions: 20 μM CPX for 24 h, day 16, CD8+ inosine-cultured HA-CAR T cells
Source text: Concatenated samples from n=3 donors. […] (Left) Dot plots of representative donor shown.

Question: For Cc1cc(C2CCCCC2)n(O)c(=O)c1 [CPX, ciclopirox], which “frequency of central memory-like cells” value is on record?
Answer: striking decrease
